Earlier results on one compound are cited in paper PMC3185201 (Molecular pharmaceutics, 2011).

This series has as its system NEP 24.11. As to conditions: prior study.

As for `CC[C@H](C)[C@H](NC(=O)[C@H](Cc1ccccc1)NC(=O)[C@H](CCC(=O)O)NC(=O)[C@H](CCCCN)NC(=O)[C@H](C)NC(=O)[C@H](C)NC(=O)[C@H](CCC(N)=O)NC(=O)[C@@H]1CCCCNC(=O)CC[C@H](NC(=O)[C@H](CO)NC(=O)[C@@H](NC(=O)[C@H](CC(=O)O)NC(=O)[C@H](CO)NC(=O)[C@@H](NC(=O)[C@H](Cc2ccccc2)NC(=O)[C@@H](NC(=O)CNC(=O)[C@H](CCC(=O)O)NC(=O)C(C)(C)NC(=O)[C@@H](N)Cc2c[nH]cn2)[C@@H](C)O)[C@@H](C)O)C(C)C)C(=O)N[C@@H](Cc2ccc(O)cc2)C(=O)N[C@@H](CC(C)C)C(=O)N[C@@H](CCC(=O)O)C(=O)N1)C(=O)N[C@H]1CCC(=O)NCCCC[C@@H](C(=O)NCC(=O)N[C@@H](CCCNC(=N)N)C(=O)NCCCCCC(=O)N[C@@H](CS)C(N)=O)NC(=O)[C@H](C(C)C)NC(=O)[C@H](CC(C)C)NC(=O)[C@H](Cc2c[nH]c3ccccc23)NC1=O` [EM3106B], the “Protection from the degradation by NEP 24.11” value was “outstanding protection”.
